Like-named read-outs stand apart in the source and are kept apart here.

Our source for the ΔTm values is article doi:10.1101/2023.03.24.534094v2 (biorxiv, 2023).

Common to all, as to experiment: biochemical
One experiment addresses CK1d (Homo sapiens, UniProt P48730).
For a further experiment, the target named is T1, DMPK1 (Homo sapiens, UniProt Q09013).
T1 sequence (Q09013 1-629): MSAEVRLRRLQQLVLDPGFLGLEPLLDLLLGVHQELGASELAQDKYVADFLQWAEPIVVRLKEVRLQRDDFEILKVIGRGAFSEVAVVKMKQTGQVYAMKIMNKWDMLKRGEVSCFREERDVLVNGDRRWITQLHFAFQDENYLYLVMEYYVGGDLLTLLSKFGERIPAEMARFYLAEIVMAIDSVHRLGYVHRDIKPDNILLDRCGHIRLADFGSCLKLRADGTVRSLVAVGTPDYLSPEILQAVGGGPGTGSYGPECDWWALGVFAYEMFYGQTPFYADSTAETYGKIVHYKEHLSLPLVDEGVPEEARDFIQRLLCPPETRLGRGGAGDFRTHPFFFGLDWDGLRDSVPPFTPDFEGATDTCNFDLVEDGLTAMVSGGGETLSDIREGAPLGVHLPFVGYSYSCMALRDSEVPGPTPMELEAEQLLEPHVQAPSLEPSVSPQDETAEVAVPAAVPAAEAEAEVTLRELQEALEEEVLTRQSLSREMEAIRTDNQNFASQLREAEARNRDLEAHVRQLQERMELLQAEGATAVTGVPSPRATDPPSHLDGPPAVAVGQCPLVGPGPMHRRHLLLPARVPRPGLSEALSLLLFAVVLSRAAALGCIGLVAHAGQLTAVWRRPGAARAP

For another experiment, the target named is T2, MYT1 (Homo sapiens, UniProt Q99640).
T2 sequence (Q99640 1-499): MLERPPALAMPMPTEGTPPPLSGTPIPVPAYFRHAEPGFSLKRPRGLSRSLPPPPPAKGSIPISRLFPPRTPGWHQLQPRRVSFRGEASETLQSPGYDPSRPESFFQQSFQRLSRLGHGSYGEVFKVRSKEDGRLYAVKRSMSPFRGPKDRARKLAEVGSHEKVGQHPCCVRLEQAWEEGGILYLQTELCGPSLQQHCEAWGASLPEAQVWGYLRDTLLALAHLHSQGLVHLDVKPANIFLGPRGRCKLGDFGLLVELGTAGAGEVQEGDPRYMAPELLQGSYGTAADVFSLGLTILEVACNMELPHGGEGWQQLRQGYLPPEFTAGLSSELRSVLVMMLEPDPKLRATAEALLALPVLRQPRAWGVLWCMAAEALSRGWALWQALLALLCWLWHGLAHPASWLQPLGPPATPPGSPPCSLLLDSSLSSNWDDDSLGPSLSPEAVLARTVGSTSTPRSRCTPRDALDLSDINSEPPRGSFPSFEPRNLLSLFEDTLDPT

For a further experiment, the target named is T3, CaMK4 (Homo sapiens, UniProt Q16566).
T3 sequence (Q16566 1-473): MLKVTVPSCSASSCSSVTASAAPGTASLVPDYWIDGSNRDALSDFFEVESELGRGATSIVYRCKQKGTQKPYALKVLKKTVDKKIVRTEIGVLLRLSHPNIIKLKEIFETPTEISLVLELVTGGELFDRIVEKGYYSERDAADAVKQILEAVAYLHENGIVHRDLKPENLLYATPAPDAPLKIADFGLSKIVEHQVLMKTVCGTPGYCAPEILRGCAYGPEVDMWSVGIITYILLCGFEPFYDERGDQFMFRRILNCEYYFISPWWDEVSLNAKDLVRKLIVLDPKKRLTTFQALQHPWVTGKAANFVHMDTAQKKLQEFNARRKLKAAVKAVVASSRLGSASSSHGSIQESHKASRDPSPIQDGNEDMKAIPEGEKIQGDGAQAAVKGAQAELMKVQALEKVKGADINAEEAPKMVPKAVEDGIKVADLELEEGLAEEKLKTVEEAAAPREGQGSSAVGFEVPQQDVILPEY

The next experiment has as its target JNK3 (Homo sapiens, UniProt P53779).
The next experiment has as its target T4, MAP2K4 (Homo sapiens, UniProt P45985).
T4 sequence (P45985 1-399): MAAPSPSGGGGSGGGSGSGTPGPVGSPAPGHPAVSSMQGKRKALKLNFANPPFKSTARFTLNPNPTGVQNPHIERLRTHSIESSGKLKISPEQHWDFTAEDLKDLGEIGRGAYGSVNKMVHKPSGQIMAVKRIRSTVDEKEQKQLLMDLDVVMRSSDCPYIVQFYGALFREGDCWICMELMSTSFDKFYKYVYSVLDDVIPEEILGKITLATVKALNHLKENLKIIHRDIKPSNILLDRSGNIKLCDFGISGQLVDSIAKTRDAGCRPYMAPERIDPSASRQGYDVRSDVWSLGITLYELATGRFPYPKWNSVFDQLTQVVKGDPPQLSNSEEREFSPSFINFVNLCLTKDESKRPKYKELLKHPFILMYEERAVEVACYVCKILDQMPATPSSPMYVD

CK1d, sequence (P48730 whole entry): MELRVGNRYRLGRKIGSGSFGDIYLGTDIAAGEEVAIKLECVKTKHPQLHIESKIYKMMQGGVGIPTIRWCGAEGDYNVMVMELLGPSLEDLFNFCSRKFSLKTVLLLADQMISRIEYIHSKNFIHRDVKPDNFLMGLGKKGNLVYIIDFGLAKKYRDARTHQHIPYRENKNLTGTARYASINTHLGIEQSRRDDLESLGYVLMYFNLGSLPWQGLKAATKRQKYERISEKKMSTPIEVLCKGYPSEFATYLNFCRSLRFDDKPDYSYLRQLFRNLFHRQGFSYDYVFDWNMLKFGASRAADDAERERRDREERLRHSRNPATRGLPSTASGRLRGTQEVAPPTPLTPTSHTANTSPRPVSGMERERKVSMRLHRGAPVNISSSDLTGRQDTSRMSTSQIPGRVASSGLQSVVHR
JNK3, sequence (P53779 whole entry): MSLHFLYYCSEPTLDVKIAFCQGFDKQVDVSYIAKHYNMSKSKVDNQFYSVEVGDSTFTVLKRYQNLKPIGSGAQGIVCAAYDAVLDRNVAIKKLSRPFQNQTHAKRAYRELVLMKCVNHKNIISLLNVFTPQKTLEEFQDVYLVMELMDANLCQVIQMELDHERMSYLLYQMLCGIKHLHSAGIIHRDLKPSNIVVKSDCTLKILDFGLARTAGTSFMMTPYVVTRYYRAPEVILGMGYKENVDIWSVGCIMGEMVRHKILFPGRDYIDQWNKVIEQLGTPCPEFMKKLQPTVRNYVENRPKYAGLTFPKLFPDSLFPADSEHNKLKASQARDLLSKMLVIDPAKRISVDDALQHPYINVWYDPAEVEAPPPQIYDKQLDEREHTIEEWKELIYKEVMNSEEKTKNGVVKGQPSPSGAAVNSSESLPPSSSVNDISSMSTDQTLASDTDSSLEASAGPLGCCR

`CNc1ncc2cc(-c3cc(Cl)ccc3Cl)c(=O)n(CCCCN)c2n1` [compound 8, 8-(4-Aminobutyl)-6-(2,5-dichlorophenyl)-2-(methylamino)pyrido[2,3-d]pyrimidin-7(8H)-one]: the ΔTm at 10 µM was 0 °C on CK1d (read-out: dTm 8); 1.3 °C on DMPK1 (read-out: dTm 8); 0.3 °C at MYT1 (read-out: dTm 8); 0.1 °C at CaMK4 (read-out: dTm 8); 0.8 °C on JNK3 (read-out: dTm 8); 2.7 °C on MAP2K4 (read-out: dTm 8).
Take `CNc1ncc2cc(-c3cc(Cl)ccc3Br)c(=O)n(CCCCN)c2n1` [compound 10, 8-(4-Aminobutyl)-6-(2-bromo-5-chlorophenyl)-2-(methylamino)pyrido[2,3-d]pyrimidin-7(8H)-one]: the ΔTm at 10 µM is 0 °C at CK1d (read-out: dTm 10); 1.8 °C at DMPK1 (read-out: dTm 10); 0.6 °C on MYT1 (read-out: dTm 10); 0.1 °C at CaMK4 (read-out: dTm 10); 1.3 °C on JNK3 (read-out: dTm 10); 3 °C on MAP2K4 (read-out: dTm 10).
Take `CNc1ncc2cc(-c3cc(Br)ccc3Br)c(=O)n(CCCCN)c2n1` [compound 11, 8-(4-Aminobutyl)-6-(2,5-dibromophenyl)-2-(methylamino)pyrido[2,3-d]pyrimidin-7(8H)-one]: the ΔTm at 10 µM is 0 °C at CK1d (read-out: dTm 11); 1.7 °C at DMPK1 (read-out: dTm 11); -0.4 °C on MYT1 (read-out: dTm 11); 0.1 °C on CaMK4 (read-out: dTm 11); 1.1 °C at JNK3 (read-out: dTm 11); 3 °C on MAP2K4 (read-out: dTm 11).
Regarding `CNc1ncc2cc(-c3cc(C(F)(F)F)ccc3Cl)c(=O)n(CCCCN)c2n1` [compound 9, 8-(4-Aminobutyl)-6-(2-chloro-5-(trifluoromethyl)phenyl)-2-(methylamino)pyrido[2,3-d]pyrimidin-7(8H)-one], the ΔTm at 10 µM is 0 °C on CK1d (read-out: dTm 9); 1.4 °C at DMPK1 (read-out: dTm 9); -0.2 °C at MYT1 (read-out: dTm 9); 0.1 °C at CaMK4 (read-out: dTm 9); 1.3 °C on JNK3 (read-out: dTm 9); 2.3 °C at MAP2K4 (read-out: dTm 9).
On to `CNc1ncc2cc(-c3cc(F)c(-c4cccc(C)n4)cc3F)c(=O)n(CCCCN)c2n1` [compound 12, 8-(4-Aminobutyl)-6-(2,5-difluoro-4-(6-methylpyridin-2-yl)phenyl)-2-(methylamino)pyrido[2,3-d]pyrimidin-7(8H)-one], for which the ΔTm at 10 µM on CK1d (read-out: dTm 12) was 0.6 °C; at DMPK1 (read-out: dTm 12) it was -0.1 °C; at MYT1 (read-out: dTm 12), -1.8 °C; on CaMK4 (read-out: dTm 12), 2.9 °C; on JNK3 (read-out: dTm 12), 0.4 °C; on MAP2K4 (read-out: dTm 12) it was 5.4 °C.
